The record followed here is PMC11505594, “Design, Synthesis, and Anti-Melanogenic Activity of 2-Mercaptomethylbenzo[d]imidazole Derivatives Serving as Tyrosinase Inhibitors: An In Silico, In Vitro, and In Vivo Exploration” (Antioxidants, 2024).

Test [1] can be described thus: Copper(II) ion-chelating activity using pyrocatechol violet. The settings on record: test samples 100 μM, pH 6.0. The procedure: Copper(II) ion-chelating activity was measured using pyrocatechol violet reagent, a copper(II)-chelating agent. Copper(II) sulfate solution (10 μL, 1 mg/mL) was added to each well of a 96-well microplate containing acetic acid–sodium acetate buffer (280 μL, 50 mM [pH 6.0]), 2-MMBI derivative (1–10; 10 μL, 100 μM as a final concentration), and pyrocatechol violet (6 μL, 4 mM). Absorbance was measured at 632 nm using a VersaMax™ reader after the microplate was incubated for 20 min at 24 °C. Cu(II) ion-chelating activity (%) = 100 × [(Abscon − Abssam)/Abscon] where Abscon and Abssam are the absorbances of the control and samples, respectively. Each experiment was independently performed in triplicate.

The subject of a further test is zebrafish larvae. Kind of test: Melanogenesis (depigmentation) assay using zebrafish embryos. In kind it is in vivo. As to conditions: for pigmentation area of zebrafish larvae (CS analyzer, dorsal and lateral views): derivatives 0.03 and 0.1 mM, kojic acid 20 mM. The protocol: To assess depigmentation in vivo, wild-type zebrafish (Danio rerio) embryos were acquired free of charge from the Zebrafish Center for Disease Modeling (ZCDM) located at Chungnam National University in Daejeon, Republic of Korea. The zebrafish were raised in tanks maintained at 28 °C in the ZCDM. The tanks were oxygenated, and the tank lights were turned off for 10 h and on for 14 h. The zebrafish embryos used for in vivo depigmentation experiments were obtained through natural mating. The E3 solution for zebrafish embryos was prepared by dissolving 19.9 mg magnesium sulfate, 6.4 mg potassium chloride, 18.3 mg calcium chloride, and 146.1 mg sodium chloride in 500 mL distilled water. E3-MB (methylene blue) solution was prepared by adding MB to the E3 solution to create a 0.001% MB solution. The acquired zebrafish embryos were transferred to a culture dish containing the E3-MB solution. The culture dish was incubated at 28 °C until zebrafish embryos were used. Since zebrafish embryos are sensitive and can be easily killed by the chorion removal process 20 h post-fertilization (20 hpf), the chorion was removed at 24 hpf through treatment with pronase (Sigma-Aldrich, St. Louis, MO, USA). Five dechorionated zebrafish embryos were transferred to each well of 48-well microplates containing 250 μL E3 solution. […] Zebrafish larvae were anesthetized with tricaine at 76 hpf and placed on a 1% methylcellulose block to determine the degree of zebrafish larva depigmentation. Dorsal and lateral images of the zebrafish larvae were acquired using an SMZ745T microscope (Nikon, Tokyo, Japan). The pigmented areas of the dorsal and lateral images were obtained using CS analyzer 3.0 image analysis software (ATTO, Tokyo, Japan). Each assay (n = 7) was independently performed two times.

The next test concerns B16F10 cells. Kind of test: Melanin content measurement assay in B16F10 cells. In kind it is cell-based, murine. As to conditions: α-MSH 1 μM plus IBMX 200 μM, 72 h; for effect on B16F10 cellular melanin production at three concentrations: 2, 5, and 10 μM. The procedure:
A 6-well plate containing 5 × 10^3 B16F10 cells per well was incubated at 37 °C and 5% CO2 for 1 day. […] After 1 h, 1 μM α-MSH and 200 μM IBMX were added to each well, and the plate was subsequently incubated at 37 °C and 5% CO2 for 72 h. The cells were exposed to […] 1N-NaOH solution and cultured at 60 °C for 1 h after washing with PBS. The lysates were transferred to each well of a 96-well plate, and the optical density at 405 nm was recorded using a VersaMax™ reader. […] Each assay was independently performed three times.

Another test is described as follows: ABTS●+ scavenging assay. The settings on record: 100 μM. The procedure:
A 2.45 mM K2S2O8 aqueous solution was mixed with a 7-mM ABTS aqueous solution in a 1:1 volume ratio. The mixture was left at 20 °C in the dark for 19 h. To adjust the adequate absorbance (0.70 ± 0.01) at 732 nm, the mixture was diluted with methanol. The diluted ABTS^●+ mixture (90 μL) in each well of a 96-well plate was mixed with a test sample (2-MMBI derivatives 1–10 and Trolox [positive material]; 10 μL in EtOH/DMSO [9/1 (v/v)] solution). All test samples were tested at a final concentration of 100 μM. Prior to the measurement of well optical density at 732 nm at 1-min intervals for 10 min using a VersaMax™ reader, the test sample-ABTS^●+ mixture was stored for 2 min in the dark. Each experiment was conducted independently in triplicate.

The nature of test [2]: Reactive oxygen species removal activity assay (SIN-1, DCFH). As to conditions: test samples 40 μM; SIN-1 10 μM. The procedure:
To assess reactive oxygen species (ROS) removal activity, a DCFH solution was prepared by mixing 50 μL DCFH-DA (1.25 mM), 50 μL esterase (0.6 unit/μL), and 4.9 mL phosphate buffer (50 mM) and maintained in the dark for 30 min. The SIN-1 solution (10 μL) was added to each well of a 96-black well that contained the test sample (10 μL; 2-MMBI derivatives 1–10 and Trolox [positive material]) and phosphate buffer (180 μL). 2-MMBI derivatives, Trolox, and SIN-1 were exposed at final concentrations of 40, 40, and 10 μM, respectively. The prepared DCFH solution (50 μL) was added to each well after 10 min. The fluorescence intensity of 2′,7′-dichlorofluorescein in the wells was measured at 535 nm using a microplate reader (Berthold Advances GmbH & Co., Bad Wildbad, Germany) with an excitation wavelength of 485 nm. Each experiment was conducted independently four times.

Test [3] concerns the target T1, mushroom TYR (Agaricus bisporus, UniProt C7FF04). Kind of test: Mushroom TYR activity assay with and without CuSO4. The settings on record: 20 μM derivative, L-tyrosine. Type of test: biochemical. The procedure: To determine whether copper(II) ions influence the TYR-inhibitory activity of 2-MMBI derivatives, the effects of these derivatives on mushroom TYR activity were measured with and without CuSO4. Briefly, mushroom TYR aqueous solution (20 μL, 1 unit/μL) was mixed with 2-MMBI derivatives (1, 3, and 8–10) (10 μL, final concentration: 20 μM) and with the substrate solution (170 μL), comprising 17.2 mM phosphate buffer (pH 6.5) and 345 μM L-tyrosine, in the presence or absence of CuSO4 (50 μL, final concentration: 50 μM) in each well of a 96-well plate. […] Each assay was carried out independently in triplicate.

A further test addresses T2, B16F10 cellular TYR (Mus musculus, UniProt P11344).
T2 construct: The in situ cellular TYR activities of the 2-MMBI derivatives were investigated using B16F10 cells; endogenous in cells; host or cells: B16F10 murine melanoma cells stimulated with alpha-MSH and IBMX
T2 sequence (P11344 19-533): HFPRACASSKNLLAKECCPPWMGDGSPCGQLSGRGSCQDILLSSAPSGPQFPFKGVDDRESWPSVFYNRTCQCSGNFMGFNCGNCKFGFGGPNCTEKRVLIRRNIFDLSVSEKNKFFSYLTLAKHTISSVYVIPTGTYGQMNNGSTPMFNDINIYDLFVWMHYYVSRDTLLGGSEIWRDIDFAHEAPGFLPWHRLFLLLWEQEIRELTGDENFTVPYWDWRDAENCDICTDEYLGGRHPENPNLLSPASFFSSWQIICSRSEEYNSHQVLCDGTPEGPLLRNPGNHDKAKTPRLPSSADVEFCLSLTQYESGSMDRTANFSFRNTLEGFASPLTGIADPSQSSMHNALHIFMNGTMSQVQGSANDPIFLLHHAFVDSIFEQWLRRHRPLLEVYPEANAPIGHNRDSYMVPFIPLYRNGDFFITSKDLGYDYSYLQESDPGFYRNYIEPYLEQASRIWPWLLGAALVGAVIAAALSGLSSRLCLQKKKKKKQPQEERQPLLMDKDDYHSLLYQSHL
Description: TYR activity assay in B16F10 cells. Type of test: cell-based, murine. The settings on record: 2, 5, and 10 μM; α-MSH 1 μM plus IBMX 200 μM; 72 h. The protocol: A 6-well plate containing 5 × 10^3 B16F10 cells per well was incubated (37 °C and 5% CO2) for 1 day. […] Stimulators (1 μM α-MSH and 200 μM IBMX) were added after 1 h, and the plate was incubated (37 °C and 5% CO2) for 72 h. After washing with PBS, 100 μL lysis buffer consisting of 1% Triton X-100, 1 mM phenylmethylsulfonyl fluoride, and 50 mM sodium phosphate buffer (pH 6.5) in a volume ratio of 1:1:18 was added to each well. Following an incubation period of 30 min at −80 °C, the cell lysates were centrifuged at 12,000× g for 10 min at 4 °C to obtain the supernatants. […] Each assay was independently performed three times.

For test [4], the target named is T1, mushroom TYR. Description: Kinetic studies on mushroom TYR (Lineweaver–Burk and Dixon plots). Type of test: biochemical. The settings on record: L-dopa as substrate. The procedure:
Kinetic experiments were performed to obtain Lineweaver–Burk plots for the analysis of mushroom TYR kinetics. Mushroom TYR solution (20 μL, 150 units/mL) was added to each well of a 96-well microplate containing 2-MMBI derivatives (10 μL; 0, 7.5, 15, and 30 μM for 1; 0, 5, 10, and 20 μM for 3 and 8; and 0, 12.5, 25, and 50 μM for 9) and a substrate solution (170 μL) composed of sodium phosphate buffer (17.2 mM; pH 6.5) and L-dopa (various concentrations: 0.5, 1, 2, 4, 8, and 16 mM). […] Lineweaver–Burk plots for each 2-MMBI derivative were obtained by plotting the value of 1/[substrate] against the value of (min/ΔOD475). Lineweaver–Burk plots were transformed into corresponding Dixon plots by plotting the value of (min/ΔOD475) against the value of the 2-MMBI derivative concentration.

Test [5] in a line: DPPH radical removal assay. The settings on record: 500 μM; 30 min in the dark. The protocol:
An aliquot (20-μL DMSO solution) of a test sample (5 mM 2-MMBI derivatives 1–10 and 5 mM vitamin C [positive material]) was added to each well of a 96-well microplate containing 180 μL DPPH methanol solution (0.2 mM). After the mixture was left in the dark at 22 °C for 30 min, the optical density at 517 nm was recorded using a VersaMax™ reader. Each experiment was conducted independently in triplicate.
Background: DPPH is a stable violet radical that fades when it is reduced.

The mark [6] stands for this setting: compared with kojic acid 20 mM, 48 h.
The mark [7] stands for this setting: CuSO4 50 μM added externally, read-out: inhibition of mushroom TYR activity with CuSO4.
The mark [8] stands for this setting: no CuSO4 added externally, read-out: inhibition of mushroom TYR activity without CuSO4.

Where two headings read alike, the source gives them in different places.

T1 sequence (C7FF04 2-392): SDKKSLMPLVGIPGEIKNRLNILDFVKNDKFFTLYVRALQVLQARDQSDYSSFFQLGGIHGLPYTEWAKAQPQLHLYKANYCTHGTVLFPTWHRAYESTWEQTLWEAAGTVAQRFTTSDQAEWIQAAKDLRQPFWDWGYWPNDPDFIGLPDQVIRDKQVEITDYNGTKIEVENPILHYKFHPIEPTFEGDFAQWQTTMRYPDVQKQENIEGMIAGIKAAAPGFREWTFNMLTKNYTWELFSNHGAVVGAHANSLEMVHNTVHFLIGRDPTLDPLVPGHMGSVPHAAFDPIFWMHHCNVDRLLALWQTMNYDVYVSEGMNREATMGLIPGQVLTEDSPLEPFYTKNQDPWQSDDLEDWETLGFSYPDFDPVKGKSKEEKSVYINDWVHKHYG

Take `O=c1cc(CO)occ1O` [Kojic acid, reference compound]: in test [1], the copper chelating activity is on record as 27%. Besides, the “depigmentation of zebrafish larvae, kojic acid” value with zebrafish larvae (20 mM, 48 h, compared to control) is “significantly reduced melanin pigments”. For the same compound, the “pigmentation area of zebrafish larvae (CS analyzer, dorsal and lateral views)” value in the test on zebrafish larvae is on record as “significantly reduced pigmentation”. Further, the “effect on B16F10 cellular melanin production at 10 μM” value (from here on “effect … at 10 μM”) in the test on B16F10 cells is recorded as “decreased the stimulator-induced melanin levels”.
As to `Cc1c(C)c2c(c(C)c1O)CCC(C)(C(=O)O)O2` (stereo not drawn) [Trolox, reference compound], the “ABTS●+ inhibition” value in “ABTS●+ scavenging assay” came to 99%. For the same compound, the ROS scavenging activity result in [2] is on record as “highest ROS scavenging activity”.
With `Cc1ccc2[nH]c(CS)nc2c1` [Derivative 8, (5-Methyl-1H-benzo[d]imidazol-2-yl)methanethiol], the “depigmentation of zebrafish larvae at 0.03 mM” value with zebrafish larvae (setting [6]) was “much stronger depigmentation efficacy than kojic acid”. The inhibition at 20 µM at mushroom TYR [3] (setting [7]) was 63%; on mushroom TYR [3] (setting [8]), 86 to 89%. Besides, on B16F10 cellular TYR, the “effect on B16F10 cellular TYR activity” value was “significantly reduced stimulator-enhanced cellular TYR activity in a dose-dependent manner”. Besides, the inhibition mechanism result at mushroom TYR [4] is “mixed TYR inhibitors”. In the test on B16F10 cells, the “effect … at 10 μM” value was “inhibited melanin production more strongly than kojic acid”. Further, the “effect on B16F10 cellular melanin production at three concentrations” value in the test with B16F10 cells is “significantly decreased the melanin levels increased by the stimulators in a concentration-dependent manner”.
`O=C1O[C@H]([C@@H](O)CO)C(O)=C1O` [L-ASCORBIC acid, L-ascorbic acid]: in test [5], the “DPPH radical scavenging activity” value is 97%.
In [1], `NC(=S)Nc1ccccc1` [PTU, phenylthiourea] yielded a copper chelating activity of 37%.
As to `O=[N+]([O-])c1ccc2[nH]c(CS)nc2c1` [Derivative 6, (5-Nitro-1H-benzo[d]imidazol-2-yl)methanethiol], in test [1], the copper chelating activity is given as 35%. The “depigmentation of zebrafish larvae at 0.03 and 0.1 mM” value in the test on zebrafish larvae (0.03 and 0.1 mM, 48 h) is given as “did not exhibit significant depigmentation”. For the same compound, the ROS scavenging activity result in [2] is listed as “stronger ROS scavenging efficacy than the other derivatives”.
With `COc1ccc2[nH]c(CS)nc2c1` [Derivative 3, (5-Methoxy-1H-benzo[d]imidazol-2-yl)methanethiol], the “depigmentation of zebrafish larvae at 0.03 mM” value with zebrafish larvae (setting [6]) is listed as “much stronger depigmentation efficacy than kojic acid”. For the same compound, the “depigmentation of zebrafish larvae at 0.1 mM” value in the test with zebrafish larvae (0.1 mM, compared with kojic acid 20 mM, 48 h) is “much more potent inhibition of melanin production in zebrafish larvae than kojic acid”. The “pigmentation area of zebrafish larvae (CS analyzer, dorsal and lateral views)” value with zebrafish larvae is listed as “reduced the pigmentation area more strongly than kojic acid in a concentration-dependent manner”. For the same compound, at mushroom TYR [3] (setting [7]), the inhibition at 20 µM was 34%. Besides, the inhibition at 20 µM on mushroom TYR [3] (setting [8]) lay within 86 to 89%. Further, the “effect on B16F10 cellular TYR activity” value on B16F10 cellular TYR is recorded as “significantly reduced stimulator-enhanced cellular TYR activity in a dose-dependent manner”. Also, the inhibition mechanism entry against mushroom TYR [4] was “competitive TYR inhibitors”. Moreover, in the test with B16F10 cells, the “effect … at 10 μM” value is given as “inhibited melanin production more strongly than kojic acid” and the “effect on B16F10 cellular melanin production at three concentrations” value is recorded as “significantly decreased the melanin levels increased by the stimulators in a concentration-dependent manner”.

As a reminder, the inhibition is the percentage by which the read-out fell short of the control.
